Results as given in PubChem BioAssay (NCI).
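Growth conditions: 96-well plates. Treatment: test compound, 48 hours, 5 concentrations. Analysis: linear interpolation between bracketing concentrations; unreached endpoints set to highest concentration. GI50 = concentration required for 50% inhibition of growth. TGI: concentration producing complete growth inhibition.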

Columns and labels:
Experiment in all cases: DTP human tumour cell line panel, 48 h
786-0 renal = system: 786-0 renal
A498 renal = system: A498 renal
A549 NSCLC = system: A549 NSCLC
ACHN renal = system: ACHN renal
BT-549 breast = system: BT-549 breast
CAKI-1 renal = system: CAKI-1 renal
CCRF-CEM leukemia = system: CCRF-CEM leukemia
COLO 205 colon = system: COLO 205 colon
DU-145 prostate = system: DU-145 prostate
HCC-2998 colon = system: HCC-2998 colon
HCT-116 colon = system: HCT-116 colon
HCT-15 colon = system: HCT-15 colon
HL-60(TB) leukemia = system: HL-60(TB) leukemia
HOP-62 NSCLC = system: HOP-62 NSCLC
HOP-92 NSCLC = system: HOP-92 NSCLC
HS 578T breast = system: HS 578T breast
HT29 colon = system: HT29 colon
IGROV1 ovarian = system: IGROV1 ovarian
K-562 leukemia = system: K-562 leukemia
KM12 colon = system: KM12 colon
LOX IMVI melanoma = system: LOX IMVI melanoma
M14 melanoma = system: M14 melanoma
MALME-3M melanoma = system: MALME-3M melanoma
MCF7 breast = system: MCF7 breast
MDA-MB-231 breast = system: MDA-MB-231 breast
MDA-MB-435 = system: MDA-MB-435
MOLT-4 leukemia = system: MOLT-4 leukemia
NCI-H226 lung = system: NCI-H226 lung
NCI-H23 lung = system: NCI-H23 lung
NCI-H460 lung = system: NCI-H460 lung
NCI-H522 lung = system: NCI-H522 lung
OVCAR-3 ovarian = system: OVCAR-3 ovarian
OVCAR-4 ovarian = system: OVCAR-4 ovarian
OVCAR-5 ovarian = system: OVCAR-5 ovarian
OVCAR-8 ovarian = system: OVCAR-8 ovarian
PC-3 prostate = system: PC-3 prostate
RPMI-8226 leukemia = system: RPMI-8226 leukemia
RXF 393 renal = system: RXF 393 renal
SF-268 CNS = system: SF-268 CNS
SF-295 CNS = system: SF-295 CNS
SF-539 CNS = system: SF-539 CNS
SK-MEL-2 melanoma = system: SK-MEL-2 melanoma
SK-MEL-28 melanoma = system: SK-MEL-28 melanoma
SK-MEL-5 melanoma = system: SK-MEL-5 melanoma
SK-OV-3 ovarian = system: SK-OV-3 ovarian
SN12C renal = system: SN12C renal
SNB-19 CNS = system: SNB-19 CNS
SNB-75 CNS = system: SNB-75 CNS
SR leukemia = system: SR leukemia
SW-620 colon = system: SW-620 colon
T-47D breast = system: T-47D breast
TK-10 renal = system: TK-10 renal
U251 CNS = system: U251 CNS
UACC-257 melanoma = system: UACC-257 melanoma
UACC-62 melanoma = system: UACC-62 melanoma
UO-31 renal = system: UO-31 renal

## Cc1nn2c(/C=C3/C(=O)Nc4ccc(Cl)cc43)c(-c3ccccc3)nc2s1
786-0 renal
  GI50: 2.37 µM
  TGI: 5.8 µM
A498 renal
  GI50: 1.63 µM
  TGI: 10.6 µM
A549 NSCLC
  GI50: 2.25 µM
  TGI: 5.51 µM
ACHN renal
  GI50: 2.96 µM
  TGI: 14.4 µM
BT-549 breast
  GI50: 3.11 µM
  TGI: 14.3 µM
CAKI-1 renal
  GI50: 1.92 µM
  TGI: 6.3 µM
CCRF-CEM leukemia
  GI50: 4.06 µM
  TGI: 23.7 µM
COLO 205 colon
  GI50: 3.9 µM
  TGI: 13.5 µM
DU-145 prostate
  GI50: 2.69 µM
  TGI: 7.2 µM
HCC-2998 colon
  GI50: 9.59 µM
  TGI: 37 µM
HCT-116 colon
  GI50: 1.9 µM
  TGI: 4.61 µM
HCT-15 colon
  GI50: 4.65 µM
  TGI: 31.9 µM
HL-60(TB) leukemia
  GI50: 28.8 µM
  TGI: > 100 µM
HOP-62 NSCLC
  GI50: 2.01 µM
  TGI: 3.99 µM
HOP-92 NSCLC
  GI50: 0.58 µM
  TGI: 3.06 µM
HS 578T breast
  GI50: 2.45 µM
  TGI: 7.79 µM
HT29 colon
  GI50: 4.03 µM
  TGI: 13.9 µM
IGROV1 ovarian
  GI50: 1.51 µM
  TGI: 10.2 µM
K-562 leukemia
  GI50: 3.85 µM
  TGI: 20.6 µM
KM12 colon
  GI50: 2.11 µM
  TGI: 5.88 µM
LOX IMVI melanoma
  GI50: 3.52 µM
  TGI: 14.8 µM
M14 melanoma
  GI50: 6.33 µM
  TGI: 21.5 µM
MALME-3M melanoma
  GI50: 2.17 µM
  TGI: 5.57 µM
MCF7 breast
  GI50: 3.85 µM
  TGI: 25 µM
MDA-MB-231 breast
  GI50: 2.29 µM
  TGI: 8.41 µM
MDA-MB-435
  GI50: 3.24 µM
  TGI: 13.5 µM
MOLT-4 leukemia
  GI50: 6.96 µM
  TGI: 37.1 µM
NCI-H226 lung
  GI50: 1.51 µM
  TGI: 4.6 µM
NCI-H23 lung
  GI50: 4.1 µM
  TGI: > 100 µM
NCI-H460 lung
  GI50: 3.18 µM
  TGI: 11.7 µM
NCI-H522 lung
  GI50: 4.26 µM
  TGI: 17.9 µM
OVCAR-3 ovarian
  GI50: 2.79 µM
  TGI: 13 µM
OVCAR-4 ovarian
  GI50: 1.66 µM
  TGI: 3.64 µM
OVCAR-5 ovarian
  GI50: 8.38 µM
  TGI: 25.9 µM
OVCAR-8 ovarian
  GI50: 2.19 µM
  TGI: 5.76 µM
PC-3 prostate
  GI50: 1.79 µM
  TGI: 5.37 µM
RPMI-8226 leukemia
  GI50: 2.94 µM
  TGI: 22.1 µM
RXF 393 renal
  GI50: 1.91 µM
  TGI: 4.71 µM
SF-268 CNS
  GI50: 2.06 µM
  TGI: 5.19 µM
SF-295 CNS
  GI50: 2.02 µM
  TGI: 5.76 µM
SF-539 CNS
  GI50: 2.25 µM
  TGI: 6.54 µM
SK-MEL-2 melanoma
  GI50: 4.04 µM
  TGI: 18.4 µM
SK-MEL-28 melanoma
  GI50: 2.65 µM
  TGI: 7.06 µM
SK-MEL-5 melanoma
  GI50: 4.07 µM
  TGI: 23.2 µM
SK-OV-3 ovarian
  GI50: 2.25 µM
  TGI: 5.03 µM
SN12C renal
  GI50: 3.95 µM
  TGI: 18.4 µM
SNB-19 CNS
  GI50: 9.54 µM
  TGI: 34.2 µM
SNB-75 CNS
  GI50: 1.19 µM
  TGI: 2.69 µM
SR leukemia
  GI50: 3.5 µM
  TGI: > 100 µM
SW-620 colon
  GI50: 4.51 µM
  TGI: 19.7 µM
T-47D breast
  GI50: 1.71 µM
  TGI: 11.5 µM
TK-10 renal
  GI50: 3.3 µM
  TGI: 8.79 µM
U251 CNS
  GI50: 1.73 µM
  TGI: 3.71 µM
UACC-257 melanoma
  GI50: 3.11 µM
  TGI: 11.1 µM
UACC-62 melanoma
  GI50: 3.8 µM
  TGI: 18.5 µM
UO-31 renal
  GI50: 1.07 µM
  TGI: 13.2 µM
